According to ChEMBL document CHEMBL1201862, “PubChem BioAssay data set” (2004):
“And” between values parts separate entries of the source, which are not always exact repeats. Equal entries are not always repeated.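 1) Cells in 96-well plates. 2) Compound, 48 h, 5 concentrations. 3) Linear interpolation between surrounding doses. 4) Unreached endpoint = highest concentration. GI50 is the concentration that inhibits growth by half.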 The source made the active and inactive calls. Rule as the data show it: active = GI50 up to about 1.1 µM and inactive = higher.

Experiments:
Experiment in all cases: NCI-60 cell line screen, 48 h
HL-60 = test system: HL-60
OVCAR-5 = test system: OVCAR-5
OVCAR-3 = test system: OVCAR-3
ACHN = test system: ACHN
HOP-18 = test system: HOP-18
HT-29 = test system: HT-29
SK-MEL-28 = test system: SK-MEL-28
SW-620 = test system: SW-620
U-251 = test system: U-251
RPMI-8226 = test system: RPMI-8226
SNB-19 = test system: SNB-19
MOLT-4 = test system: MOLT-4
HCC 2998 = test system: HCC 2998
DLD-1 = test system: DLD-1
UACC-257 = test system: UACC-257
NCI-H226 = test system: NCI-H226
KM12 = test system: KM12
UO-31 = test system: UO-31
SK-MEL-5 = test system: SK-MEL-5
UACC-62 = test system: UACC-62
HCT-116 = test system: HCT-116
CCRF-CEM = test system: CCRF-CEM
LXFL 529 = test system: LXFL 529
IGROV-1 = test system: IGROV-1
COLO 205 = test system: COLO 205
K562 = test system: K562
SK-OV-3 = test system: SK-OV-3
HOP-92 = test system: HOP-92
SF-268 = test system: SF-268
A498 = test system: A498
SNB-75 = test system: SNB-75
NCI-H23 = test system: NCI-H23
HOP-62 = test system: HOP-62
A549 = test system: A549
M19-MEL = test system: M19-MEL
NCI-H522 = test system: NCI-H522
SF-295 = test system: SF-295
TK-10 = test system: TK-10
OVCAR-8 = test system: OVCAR-8
SF-539 = test system: SF-539
NCI-H460 = test system: NCI-H460
SN12C = test system: SN12C
EKVX = test system: EKVX
LOX IMVI = test system: LOX IMVI
KM-20L2 = test system: KM-20L2
DMS-273 = test system: DMS-273
CAKI-1 = test system: CAKI-1
RXF 393 = test system: RXF 393
DMS-114 = test system: DMS-114
SK-MEL-2 = test system: SK-MEL-2
HCT-15 = test system: HCT-15
XF498 = test system: XF498
786-0 = test system: 786-0
Malme-3M = test system: Malme-3M
M14 = test system: M14

With `Cc1ccc(N2C(=O)/C(=C3\SC(C(N)=O)=C(N)N3c3ccccc3)SC2=S)cc1` the GI50 (HL-60) was > 100 µM (inactive), the GI50 (OVCAR-5) was 2.21 µM (inactive) and the GI50 (OVCAR-3) was 90.2 µM (inactive). For the same compound, the GI50 (ACHN) was 66.1 µM (inactive), the GI50 (HOP-18) was 37.7 µM (inactive) and the GI50 (HT-29) was 44.3 µM (inactive). For the same compound, the GI50 (SK-MEL-28) was > 100 µM (inactive), the GI50 (SW-620) was > 100 µM (inactive) and the GI50 (U-251) was 71.6 µM (inactive). For the same compound, the GI50 (RPMI-8226) was 72.4 µM (inactive), the GI50 (SNB-19) was 57.5 µM (inactive) and the GI50 (MOLT-4) was > 100 µM (inactive). The GI50 (HCC 2998) was > 100 µM (inactive), the GI50 (DLD-1) was 90.8 µM (inactive) and the GI50 (UACC-257) was > 100 µM (inactive). The GI50 (NCI-H226) was 37.3 µM (inactive), the GI50 (KM12) was > 100 µM (inactive) and the GI50 (UO-31) was > 100 µM (inactive). The GI50 (SK-MEL-5) was > 100 µM (inactive), the GI50 (UACC-62) was > 100 µM (inactive) and the GI50 (HCT-116) was 71 µM (inactive). For the same compound, the GI50 (CCRF-CEM) was > 100 µM (inactive), the GI50 (LXFL 529) was > 100 µM (inactive) and the GI50 (IGROV-1) was > 100 µM (inactive). For the same compound, the GI50 (COLO 205) was > 100 µM (inactive), the GI50 (K562) was 78.7 µM (inactive) and the GI50 (SK-OV-3) was 28.2 µM (inactive). The GI50 (HOP-92) was 12.1 µM (inactive), the GI50 (SF-268) was 15.7 µM (inactive) and the GI50 (A498) was 4.73 µM (inactive). For the same compound, the GI50 (SNB-75) was 7.91 µM (inactive), the GI50 (NCI-H23) was 51.1 µM (inactive) and the GI50 (HOP-62) was 25.8 µM (inactive). The GI50 (A549) was > 100 µM (inactive), the GI50 (M19-MEL) was > 100 µM (inactive) and the GI50 (NCI-H522) was 27.7 µM (inactive). The GI50 (SF-295) was 24.9 µM (inactive), the GI50 (TK-10) was > 100 µM (inactive) and the GI50 (OVCAR-8) was 46 µM (inactive). For the same compound, the GI50 (SF-539) was 22.8 µM (inactive) and the GI50 (NCI-H460) was > 100 µM (inactive).

`CC1(O)CC2C(CC1SCc1ccccc1)C2(C)C` (stereo not drawn) was tested, and the GI50 (OVCAR-5) was 17.9 µM (inactive) and 17.1 µM (inactive), the GI50 (OVCAR-3) was 12.3 µM (inactive) and 16.9 µM (inactive) and the GI50 (ACHN) was 16.8 µM (inactive) and 18.2 µM (inactive). The GI50 (HT-29) was 16.4 µM (inactive) and 23.1 µM (inactive), the GI50 (SK-MEL-28) was 21 µM (inactive) and 29.3 µM (inactive) and the GI50 (SN12C) was 16.1 µM (inactive) and 23.2 µM (inactive). For the same compound, the GI50 (EKVX) was 16.7 µM (inactive) and 29.7 µM (inactive), the GI50 (SW-620) was 17.5 µM (inactive) and 21.7 µM (inactive) and the GI50 (U-251) was 16 µM (inactive) and 21.2 µM (inactive). For the same compound, the GI50 (LOX IMVI) was 17.1 µM (inactive) and 15.5 µM (inactive), the GI50 (RPMI-8226) was 11.9 µM (inactive) and 19.8 µM (inactive) and the GI50 (KM-20L2) was 20.6 µM (inactive) and 26.6 µM (inactive). The GI50 (NCI-H226) was 21.5 µM (inactive) and 16 µM (inactive), the GI50 (KM12) was 19.3 µM (inactive) and 25.3 µM (inactive) and the GI50 (SK-MEL-5) was 23.6 µM (inactive) and 13.1 µM (inactive). The GI50 (UACC-62) was 32.4 µM (inactive) and 19.3 µM (inactive), the GI50 (HCT-116) was 16.6 µM (inactive) and 21.2 µM (inactive) and the GI50 (DMS-273) was 14.2 µM (inactive) and 17.9 µM (inactive). The GI50 (CAKI-1) was 15.8 µM (inactive) and 12.5 µM (inactive), the GI50 (COLO 205) was 20 µM (inactive) and 16.9 µM (inactive) and the GI50 (RXF 393) was 15.3 µM (inactive) and 18.5 µM (inactive). For the same compound, the GI50 (DMS-114) was 14.5 µM (inactive), the GI50 (SK-MEL-2) was 17.3 µM (inactive) and 11.4 µM (inactive) and the GI50 (SF-268) was 25.9 µM (inactive) and 18.7 µM (inactive). The GI50 (A498) was 18.3 µM (inactive) and 28.1 µM (inactive), the GI50 (NCI-H23) was 23.3 µM (inactive) and 14.2 µM (inactive) and the GI50 (HCT-15) was 16.9 µM and 22.3 µM. For the same compound, the GI50 (HOP-62) was 24.9 µM (inactive) and 16.6 µM (inactive), the GI50 (XF498) was 20.5 µM (inactive) and 15.2 µM (inactive) and the GI50 (NCI-H522) was 13.7 µM (inactive) and 11.9 µM (inactive). The GI50 (786-0) was 15.8 µM (inactive) and 21.7 µM (inactive), the GI50 (SF-295) was 28.2 µM (inactive) and the GI50 (Malme-3M) was 22 µM (inactive) and 16.3 µM (inactive). For the same compound, the GI50 (M14) was 30.1 µM (inactive) and 15.5 µM (inactive), the GI50 (OVCAR-8) was 16.5 µM (inactive) and 29.4 µM (inactive) and the GI50 (SF-539) was 28.8 µM (inactive) and 19.3 µM (inactive). For the same compound, the GI50 (NCI-H460) was 14.6 µM (inactive) and 22.9 µM (inactive).
